Results from patent US5466675A, “Immunological activity of rhamnolipids” (priority 1992, dated 1995).
Where two headings read alike, the source gives them in different places.

Tests used:
Psoriasis [1] = conditions: 1% rhamnolipid ointment; Belgium patent No. 1,005,704; cited from earlier work
Lichen ruber planus [2] = assay: clinical treatment of lichen ruber planus; format: in vivo, human; conditions: one patient
Protocol: (§1) 17 patients, 11 men and 6 women, were treated with rhamnolipid (II). Among these, 12 patients were suffering from Psoriasis, 2 from Neurodermitis, 1 from Lichen ruber planus, 1 from Serborhoic dermatitis and one from Dermatitis circumscripta unilocularis eczematoides.

mice C57B1/6 = assay: range-finding study phase (five doses per day)
[3] = test system: Dermatitis circumscripta unilocularis; assay: clinical treatment of dermatitis circumscripta unilocularis; format: in vivo, human; conditions: one patient
Protocol: as §1

P561ek Tyrosine Kinase = P561ek Tyrosine Kinase (Homo sapiens, UniProt P06239); assay: enzyme inhibition, p56lck tyrosine kinase; format: biochemical; conditions: 0.5% DMSO
Protocol: (§2) Rhamnolipid (II) was tested in vitro against a wide array of enzymes.
(§3) All enzyme assays were done spectrophotometrically by computer linked automatic microplate reader (Labsystem Multiskan) and Diode Array spectrophotometer (Perkin Elmer).

alkalinephosphatase = assay: enzyme inhibition, alkalinephosphatase; format: biochemical
Protocol: as §2, §3

Neurodermitis = assay: clinical treatment of neurodermitis; format: in vivo, human; conditions: twice a day; occlusions up to 24 hours
Protocol: Two patients with Neurodermitis were treated at the beginning of 1992. Rhamnolipid II was applied on affected regions twice a day; occlusions were applied as well (up to 24 hours).
The treatment and monitoring of patients was, again, a "double blind" experiment. Other affected regions where corticosteroids were applied were used for comparison.

seborhoic dermatitis = assay: clinical treatment of seborhoic dermatitis; format: in vivo, human; conditions: one patient
Protocol: as §1

elastase = assay: enzyme inhibition, elastase; format: biochemical
Protocol: as §2, §3

HIV I, strain IIIB = assay: effect on viruses, HIV I strain IIIB; format: cell-based; conditions: Human immunodeficiency virus 1, IIIB; read-out: maximal protection
Protocol: (§4) Tests were performed according to D. A. Vanden Berghe et al., Inst. Pasteur 84,101 (1986). Rhamnolipid (II) was toxic for VERO cells in concentrations ≥200 ug/ml, and cytotoxic on MT4 cells in concentrations >169.40 ug/ml.

semliki forest virus = assay: effect on viruses, semliki forest; format: cell-based; conditions: concentrations ≤100 ug/ml
Protocol: as §4

carboxypeptidase A = assay: enzyme inhibition, carboxypeptidase A; format: biochemical
Protocol: as §2
(§5) The following enzymes were inhibited at the various rhamnolipid concentrations indicated:
as §3

Psoriasis [4] = assay: clinical treatment of psoriasis; format: in vivo, human
Protocol: as §1
All patients were treated by application of a cream containing rhamnolipid II over selected psoriatic localities, 2 times a day for 21 days.
The remaining psoriatic localities on the body were treated with local corticosteroid.
The treatment and the follow-up of the patients was a "double blind" experiment.
The therapeutic efficacy was monitored by PASI-index.
After observing positive results with the first six psoriatic patients, who were treated and monitored until the end of the year, rhamnolipid was applied on larger psoriatic surfaces (up to a half of the patient's body where psoriatic lesions existed). Also, occlusions were used (up to 48 hours) and the duration and usage of occlusions was prolonged up to 35 days.
Patients were seen 3, 6 and 9 months after treatment and they were instructed not to apply any other local preparations at the same localities where rhamnolipic II was applied.

lipoxygenase = assay: enzyme inhibition, lipoxygenase; format: biochemical
Protocol: as §2, §5, §3

P59fyn Tyrosine Kinase = P59fyn Tyrosine Kinase (Homo sapiens, UniProt P06241); assay: enzyme inhibition, p59fyn tyrosine kinase; format: biochemical; conditions: 0.5% DMSO
Protocol: as §2, §3

citrate bovine blood = assay: hemolytic activity; format: cell-based
Protocol: Hemolytic activity of rhamnolipid (II) could be seen after sedimentation of erythrocytes, when hemoglobin colored the solution. If there was no hemolytic activity, erythrocytes would have precipitated without coloring the solution. For test purposes 1 ml of citrate bovine blood was added to 49 ml of isotonic solution.
Series of test samples were prepared in concentrations ranging from 1.0 mg/ml to 0.01 mg/ml. 1 ml of diluted citric bovine blood was added to 1 ml of diluted test sample. The test tube was gently mixed and left for 0.25 h, 1 h and 24 h, respectively. The lowest dose of rhamnolipid II that caused hemolysis in 15 min. was 0.35 mg/ml; in 1 h was 0.25 mg/ml and in 24 h was 0.125 mg/ml.

[5] = test system: A431 human epidermal cells; assay: A431 cell DNA synthesis ([3H] thymidine incorporation); format: cell-based; conditions: for inhibition of DNA synthesis: absence of serum growth factors; for activity at 1 µg/mL / activity at 10 µg/mL / activity at 100 µg/mL: Homo sapiens, read-out: DNA synthesis, % placebo
Protocol: A431 cells were cultured for 24 h in microtitter platesm, with serum free medium or in the presence of serum with rhamnolipid. Then, [^3 H] thymidine was added and cells were harvested after 48 h; [^3 H] incorporated into DNA was determined.

papain = papain (Carica papaya, UniProt P00784); assay: enzyme inhibition, papain; format: biochemical
Protocol: as §2, §3

alpha-chymotrypsin = assay: enzyme inhibition, alpha-chymotrypsin; format: biochemical
Protocol: as §2, §3

Lichen ruber planus [6] = conditions: 1% rhamnolipid ointment; Belgium patent No. 1,005,704; cited from earlier work
[7] = five doses per day, intraperitoneal

Sequence of P59fyn Tyrosine Kinase (P06241 whole entry): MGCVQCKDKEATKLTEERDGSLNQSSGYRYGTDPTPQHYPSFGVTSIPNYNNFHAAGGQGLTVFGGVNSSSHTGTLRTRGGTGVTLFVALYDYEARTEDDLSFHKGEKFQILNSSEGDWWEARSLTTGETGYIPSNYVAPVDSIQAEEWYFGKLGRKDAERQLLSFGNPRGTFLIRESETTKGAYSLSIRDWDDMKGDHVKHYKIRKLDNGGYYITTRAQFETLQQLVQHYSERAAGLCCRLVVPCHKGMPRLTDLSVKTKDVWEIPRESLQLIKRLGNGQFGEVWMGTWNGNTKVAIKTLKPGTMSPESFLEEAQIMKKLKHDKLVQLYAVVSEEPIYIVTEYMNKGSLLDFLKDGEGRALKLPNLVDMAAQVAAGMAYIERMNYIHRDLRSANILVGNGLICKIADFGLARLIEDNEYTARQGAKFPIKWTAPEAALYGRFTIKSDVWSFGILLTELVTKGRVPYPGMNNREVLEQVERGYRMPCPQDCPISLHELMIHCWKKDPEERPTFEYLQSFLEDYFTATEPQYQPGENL
Sequence of P561ek Tyrosine Kinase (P06239 whole entry): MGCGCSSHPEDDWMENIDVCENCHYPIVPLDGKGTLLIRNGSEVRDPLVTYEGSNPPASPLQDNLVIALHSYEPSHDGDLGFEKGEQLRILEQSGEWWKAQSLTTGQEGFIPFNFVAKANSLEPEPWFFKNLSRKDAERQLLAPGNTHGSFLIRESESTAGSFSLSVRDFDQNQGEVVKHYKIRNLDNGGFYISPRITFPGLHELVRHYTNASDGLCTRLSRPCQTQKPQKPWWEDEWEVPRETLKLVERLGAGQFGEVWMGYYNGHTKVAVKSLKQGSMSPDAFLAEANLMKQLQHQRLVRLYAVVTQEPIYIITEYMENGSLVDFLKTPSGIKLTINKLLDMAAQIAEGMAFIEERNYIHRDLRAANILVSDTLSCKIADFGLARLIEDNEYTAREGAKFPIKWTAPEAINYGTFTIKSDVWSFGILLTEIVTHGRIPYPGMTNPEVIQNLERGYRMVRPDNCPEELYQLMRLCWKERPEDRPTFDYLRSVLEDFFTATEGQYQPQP
Sequence of papain (P00784 134-345): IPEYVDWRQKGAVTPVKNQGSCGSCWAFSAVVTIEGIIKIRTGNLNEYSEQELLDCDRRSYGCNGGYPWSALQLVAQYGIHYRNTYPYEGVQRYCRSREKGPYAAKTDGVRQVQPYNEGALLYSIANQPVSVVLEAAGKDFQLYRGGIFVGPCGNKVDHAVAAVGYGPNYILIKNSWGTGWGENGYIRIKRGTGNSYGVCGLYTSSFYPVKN

CCCCCCCC(CC(=O)O)OC(=O)CC(CCCCCCC)O[C@@H]1O[C@@H](C)[C@H](O)[C@@H](O)[C@H]1O[C@@H]1O[C@@H](C)[C@H](O)[C@@H](O)[C@H]1O (stereo partly drawn) [Rhamnolipid (II), (alpha-L-rhamnopyranosyl-(1,2)alpha-L-rhamnopyranosyl)-3-hydroxydecanoyl-3-hydroxydecanoic acid]
activity in treatment of Psoriasis (Psoriasis [1]): strong activity | cure (Lichen ruber planus [2]): completely cured | five dose toxicity (mice C57B1/6; [7]): 5 mg/kg | lower bracket dose (LBD) (mice C57B1/6; [7]): 45 mg/kg | upper bracket dose (UBD) (mice C57B1/6; [7]): 125 mg/kg | difference between rhamnolipid (II) and control (mice C57B1/6; fourth day after application): no statistical differences | cure [3]: completely cured | inhibition at 0.01 µM (P561ek Tyrosine Kinase; 0.01 μM): 4% | inhibition at 1 µM (P561ek Tyrosine Kinase; 1 μM): 3% | inhibition at 100 µM (P561ek Tyrosine Kinase; 100 μM): 11% | effect on enzyme (alkalinephosphatase): no effect | improvements versus corticosteroids (Neurodermitis): observed rapidly, faster than in cases when corticosteroids were applied | occurrence of relapses versus local corticosteroids (Neurodermitis): a bit later | cure (seborhoic dermatitis): completely cured | effect on enzyme (elastase): no effect | Emax (HIV I, strain IIIB): 9% | antiviral activity (semliki forest virus): no activity | concentration at which the enzyme was inhibited (carboxypeptidase A): 1 mg/mL | curative effects in comparison with corticosteroids (Psoriasis [4]; 1% concentration): long-lasting curative effects | remission of the treated area (Psoriasis [4]; 1% concentration, some patients): still in remission of the treated area after three years | appearance of relapses (Psoriasis [4]; 10 months after treatment, versus local corticosteroid): significantly delayed | results on psoriatic lesions (Psoriasis [4]; cream, 2 times a day for 21 days, follow up 3, 6 and 9 months): good results | time to curative effect versus local corticosteroid (Psoriasis [4]; in most cases): sooner or in the same period of time it took local corticosteroid | relapses (Psoriasis [4]; some patients, 10 months following the treatment, larger surfaces, occlusions): no relapses were observed even after 10 months | concentration at which the enzyme was inhibited (lipoxygenase): 10 µg/mL | inhibition at 0.01 µM (P59fyn Tyrosine Kinase; 0.01 μM): 1% | inhibition at 1 µM (P59fyn Tyrosine Kinase; 1 μM): 0% | inhibition at 100 µM (P59fyn Tyrosine Kinase; 100 μM): 15% | lowest dose that caused hemolysis (citrate bovine blood; 15 min): 0.35 mg/mL | lowest dose that caused hemolysis (citrate bovine blood; 1 h): 0.25 mg/mL | lowest dose that caused hemolysis (citrate bovine blood; 24 h): 0.125 mg/mL | amount that led to hemolytic activity (citrate bovine blood; diluted in 2 ml isotonic solution of diluted citric bovine blood, lower did not): 0.25 mg | inhibition of DNA synthesis ([5]; 0.1 mg/ml): completely inhibited | inhibition of DNA synthesis ([5]; 0.1 mg/ml, listed as rhamnolipid II): total inhibition | DNA synthesis [3H] Thy inc. ([5]; 10 (v/v) % FCS, 0.001 mg/ml): 35400 +/- 2786 dpm | DNA synthesis [3H] Thy inc. ([5]; 10 (v/v) % FCS, 0.01 mg/ml): 31273 +/- 2028 dpm | DNA synthesis [3H] Thy inc. ([5]; 10 (v/v) % FCS, 0.1 mg/ml): 37055 +/- 1881 dpm | activity at 1 µg/mL ([5]; A-431, 10 (v/v) % FCS, 0.001 mg/ml): 106 ± 8% | activity at 10 µg/mL ([5]; A-431, 10 (v/v) % FCS, 0.01 mg/ml): 94 ± 6% | activity at 100 µg/mL ([5]; A-431, 10 (v/v) % FCS, 0.1 mg/ml): 111 ± 6% | activity at 1 µg/mL ([5]; A-431, serum free medium, 0.001 mg/ml): 91 ± 32% | activity at 10 µg/mL ([5]; A-431, serum free medium, 0.01 mg/ml): 64 ± 19% | activity at 100 µg/mL ([5]; A-431, serum free medium, 0.1 mg/ml): 2 ± 2% | DNA synthesis [3H] Thy inc. ([5]; serum free medium, 0.001 mg/ml): 6935 +/- 2432 dpm | DNA synthesis [3H] Thy inc. ([5]; serum free medium, 0.01 mg/ml): 4885 +/- 1480 dpm | DNA synthesis [3H] Thy inc. ([5]; serum free medium, 0.1 mg/ml): 134 +/- 129 dpm | effect on enzyme (papain): no effect | effect on enzyme (alpha-chymotrypsin): no effect | defect of spiralization (CHO cells): not observed | overall structural chromosome damages and number of cells with 2 to 4 aberrations (CHO cells): increased several fold | activity in treatment of Lichen rubber planus (Lichen ruber planus [6]): strong activity
